Laboratory results reported in patent US5763431A, “Method for regulating neuropeptide hormone secretion” (priority 1996, dated 1998).
Several values for one entry are separate records, joined by “and”; a condition that tells them apart may be missing. Equal entries are not always repeated. Entries after “also recorded” stand apart in the source; their conditions may differ.

Key:
[1] = test system: Posterior Pituitary GABAA Receptor; assay: Desensitization of the GABAA receptor during sustained GABA application, whole-terminal recordings; assay type: cell-based; parameters: Time constant of desensitization, GABA with steroid: dose or concentration left out as unconfirmed; conditions: for Desensitization Time-Constant Ratio: (GABA+steroid)/GABA, geometric mean, allopregnanolone 100 nM, estradiol-17β 100 nM; for Time constant of desensitization, GABA with steroid: sustained application of GABA in the presence of steroid, same terminals as controls
Excerpt: FIGS. 3A and 3B are whole terminal recordings showing the GABA desensitizing effect of certain neuroactive steroids on the GABAA receptor. […] 3B illustrates the effect of allopregnanolone.
Sustained application of GABA desensitized the receptor with a time constant of 9.5±0.5 sec (n=3). […] Similar results were obtained with allopregnanolone; the average time constant for desensitization was 9.1±1.8 sec with GABA alone and 10.2±1.7 sec (n=3) with GABA and allopregnanolone.
(§1) Measurements were made in nerve terminals for responses to GABA alone or GABA+steroid. The ratios were computed as (GABA+steroid)/GABA, and the geometric means were computed for the indicated number of ratios. The * indicates statistical significance at the level of P<0.05. […] The single-channel activity was determined from Po using all-points histograms such as those shown in FIGS. 4B and 4D, as described in METHODS. The GABA concentration was […] for the first two columns and 1 mM for the last column.

[2] = test system: Posterior Pituitary GABAA Receptor; assay: GABA-gated Cl- single-channel currents in outside-out patches excised from posterior pituitary nerve terminals; assay type: cell-based
Protocol: as §1

[3] = Oral contraceptive containing neuroactive steroid in premenopausal women (Example 3); assay type: in vivo, human; conditions: progesterone containing oral contraceptive with neuroactive steroid, two years; expected
Excerpt: An experiment is run with a study group of premenopausal women. Half of the group is placed on a progesterone containing oral contraceptive which also contains a neuroactive steroid such as allepregnanolone. The other half of the study group is given the same oral contraceptive but without neuroactive steroid. The study is run for two years and the group is regularly evaluated for its cardiovascular status.

[4] = Treatment and prevention of hypertension in borderline hypertensive patients (Example 2); assay type: in vivo, human; conditions: daily high physiological dosage, after one year, versus placebo; expected
Excerpt: An experiment is run with study group of patients who are borderline hypertensive. Half of the group is given daily a high physiological dosage of allepregnanolone. The remaining patients are placed on placebo.

[5] = test system: Posterior Pituitary GABAA Receptor; assay: Whole-terminal patch clamp recording of GABA responses in posterior pituitary nerve terminals; assay type: cell-based; conditions: for Effect on GABA-activated Cl- current / GABAA receptor responses of nerve terminals (in words): posterior pituitary nerve terminals
Protocol: as §1

Structure (SMILES) | Desensitization Time-Constant Ratio [1] | Time constant of desensitization, GABA with steroid [1] [s] | Effect on GABA-activated single-channel activity (in words) [2] | Cardiovascular status compared to control [3] | Blood pressure relative to control [4] | Effect on GABA-activated Cl- current / GABAA receptor responses of nerve terminals (in words) [5] | Effect on rate of desensitization (in words) ([1]; sustained GABA application) | GABA responses as % of controls ([5]; estradiol-17β 100 nM, n=6) [%] | Time constant of desensitization, GABA alone ([1]; sustained application of GABA alone (controls of the alphaxalone, allopregnanolone and estradiol-17β experiments, in this order))
CC(=O)[C@H]1CC[C@H]2[C@@H]3CC[C@H]4C[C@H](O)CC[C@]4(C)[C@H]3CC[C@]12C [Allopregnanolone, 3α-hydroxy-5α-pregnan-20-one] | 1.14 | 10.2 ± 1.7 | more channel activity than GABA alone; also recorded: clearly increased | significantly better cardiovascular status compared to control | significantly lower blood pressure relative to control | potentiated; also recorded: strongly enhanced |  |  | 
CC(=O)[C@H]1CC[C@H]2[C@@H]3CC[C@H]4C[C@H](O)CC[C@]4(C)[C@H]3C(=O)C[C@]12C [Alphaxalone, alphaxalone] |  | 8.9 ± 0.5 |  |  |  |  |  |  | 
C[C@]12CC[C@@H]3c4ccc(O)cc4CC[C@H]3[C@@H]1CC[C@@H]2O [Estradiol-17β] | 0.90 | 7.9 ± 1.9 | went down slightly |  |  | weak inhibitory effect | failed to alter the rate of desensitization | 78 | 
NCCCC(=O)O [GABA] |  |  |  |  |  |  |  |  | 9.5 ± 0.5 s and 9.1 ± 1.8 s and 9.2 ± 0.2 s
